# According to patent publication US20130085157A1, “ARYLSUBSTITUTED THIAZOLOTRIAZOLES AND THIAZOLOIMIDAZOLES” (priority 2011, published 2013):
# Target: T1, human TGR5 bile acid receptor (Homo sapiens, UniProt Q8TDU6)
# T1 construct: The full length TGR5 gene is inserted into pCMV6 vector DNA (Origene); expressed in transfected cells
# T1 sequence (Q8TDU6 1-330): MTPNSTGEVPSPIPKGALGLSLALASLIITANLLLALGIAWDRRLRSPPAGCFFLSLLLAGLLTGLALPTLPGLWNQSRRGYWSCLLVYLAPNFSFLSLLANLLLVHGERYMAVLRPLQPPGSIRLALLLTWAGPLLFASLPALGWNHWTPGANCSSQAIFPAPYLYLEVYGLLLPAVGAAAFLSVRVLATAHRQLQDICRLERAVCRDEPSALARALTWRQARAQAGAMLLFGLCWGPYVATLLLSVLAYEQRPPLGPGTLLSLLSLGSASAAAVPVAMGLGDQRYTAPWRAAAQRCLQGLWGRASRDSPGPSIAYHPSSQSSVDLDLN
# Assay: TGR5 receptor activation, HTRF cAMP assay in 293/humanTGR5 cells
# Assay type: cell-based
# Conditions: activation of 293/humanTGR5 (HEK 293) cells measured by cAMP levels, 30 minutes at 37° C., relative to vehicle and 50 μM of Compound 7
# Description: Transformed E. coli stocks containing cDNA for the full length human TGR5 bile acid receptor (IMAGE clone #5221127) are obtained from Open Biosystems. Cultures are grown in LB broth, and cDNA is purified using Qiagen mini-prep columns. The full length TGR5 gene is inserted into pCMV6 vector DNA (Origene) by ligation followed by transformation in competent E. coli. Ampicillin-resistant clones are isolated and vector DNA containing the TGR5 gene is verified by DNA sequence analysis (Sequetech). The resulting plasmid is transfected into HEK 293 cells using FuGene 6 transfection reagent and the transfected cells are grown in the presence of 1 mg/mL G418 selection antibiotic. A number of individual G418 resistant colonies are isolated by using 150 μL cloning cylinders. The resulting 293/humanTGR5 expressing cell lines are then screened for responsiveness to the natural ligand lithocholic acid. A single clone is chosen for expansion and use for screening, this clone reproducibly responds to known receptor agonists for over 30 passages. The 293/humanTGR5 cells are maintained in DMEM/F12 media supplemented with 10% fetal bovine serum (Hyclone) and 15 mM HEPES buffer (Invitrogen). Cells are passaged twice weekly and maintained at densities to assure logarithmic growth. For use in cAMP assays, cells are trypsinzied, centrifuged, and resuspended in DMEM/F12 media supplemented with 0.5% FBA and 15 mM HEPES buffer. These cells are adjusted to a density which allows distribution of 25,000 cells in 20 μL of volume to each well of a half-area 96-well plate (Greiner Bio-One). 20 μL of test compounds diluted to a 2× concentration in DMEM/F12 media with 0.5% FBS are then added to the 96-well plates, and the plates are then incubated for 30 minutes at 37° C. in a 5% CO2 atmosphere. Levels of resulting cAMP for each treatment condition are then determined by use of an HTRF cAMP assay (CisBio) following the manufactures directions. The resulting data is analyzed using IDBX XLfit software and IC50 determinations are made for each test compound by comparing cAMP levels to vehicle controls (unstimulated) and TGR5 agonist-activated cells (50 μM of Compound 7, a reported TGR5 receptor agonist, J. Med. Chem., 2009, 52 (24), pp 7962-7965). Specificity for human TGR5 agonist activity is confirmed for compounds of interest by testing them against cell lines over expressing the mouse TGR5 receptor, human GPR119 receptor, and parent cell lines followed by measurement of resulting cAMP levels. Assay responsiveness is controlled for by measuring cAMP levels induced by 50 μM Forskolin in cells, a known adenylyl […] activator.
row,SMILES,EC50
1,Cc1cc(-c2csc3nnc(SCc4ccc5c(c4)OCO5)n23)ccc1F [Example 115],< 0.5 µM
2,"Fc1cccc(Cl)c1CSc1cnc2scc(-c3cccc(Cl)c3)n12 [Example 138, 5-[(2-chloro-6-fluoro-phenyl)methylsulfanyl]-3-(3-chlorophenyl)imidazo[2,1-b]thiazole]",0.5 to 5 µM
3,Cc1ccc(N(C)c2nnc3scc(-c4cc(Cl)ccc4Cl)n23)cc1Cl [Example 120],0.5 to 5 µM
4,COc1cc(-c2csc3nnc(SCc4ccc5c(c4)OCO5)n23)ccc1F [Example 50],0.5 to 5 µM
5,Clc1ccc(CSc2nnc3scc(-c4ccccc4)n23)cc1 [Example 26],0.5 to 5 µM
6,Clc1cccc(-c2csc3nnc(SCc4ccc5c(c4)OCO5)n23)c1Cl [Example 76],0.5 to 5 µM
7,COc1cc(Br)c(Cc2sc3nnc(SCc4c(F)cccc4Cl)n3c2-c2ccc(F)c(Cl)c2)cc1OC [Example 119],0.5 to 5 µM
8,CN(C(=O)C(C)(C)C)c1cc(F)ccc1-c1csc2nnc(SCc3ccc4c(c3)OCO4)n12 [Example 59],5 to 50 µM
9,c1ccc(-c2csc3nnc(Oc4ccc5c(c4)OCO5)n23)cc1 [Example 46],5 to 50 µM
10,COc1ccc(-c2csc3nnc(SCc4ccc5c(c4)OCO5)n23)c(Cl)c1 [Example 65],0.5 to 5 µM
11,"c1ccc(-c2csc3nnc(CCc4ccc5c(c4)OCO5)n23)cc1 [Example 4, 3-[2-(1,3-benzodioxol-5-yl)ethyl]-5-phenyl-thiazolo[2,3-c][1,2,4]triazole]",5 to 50 µM
12,"Cc1ccc(N(C)C(=O)c2sc3nncn3c2-c2ccccc2)cc1Cl [Example 1, N-(3-chloro-4-methyl-phenyl)-N-methyl-5-phenyl-thiazolo[2,3-c][1,2,4]triazole-6-carboxamide]",0.5 to 5 µM
13,"Cc1ccc(N(C)C(=O)c2sc3nnc(SCc4ccc5c(c4)OCO5)n3c2-c2ccccc2)cc1Cl [Example 3, 3-(1,3-Benzodioxol-5-ylmethylsulfanyl)-N-(3-chloro-4-methyl-phenyl)-N-methyl-5-phenyl-thiazolo[2,3-c][1,2,4]triazole-6-carboxamide]",0.5 to 5 µM
14,"Fc1cccc(Cl)c1CSc1ncc2scc(-c3cccc(Cl)c3)n12 [Example 15, 5-[(2-chloro-6-fluoro-phenyl)methylsulfanyl]-3-(3-chlorophenyl)imidazo[5,1-b]thiazole]",< 0.5 µM
15,"Cc1ccc(Nc2nnc3scc(-c4cc(Cl)ccc4Cl)n23)cc1Cl [Example 14, N-(3-chloro-4-methylphenyl)-5-(2,5-dichlorophenyl)thiazolo[2,3-c][1,2,4]triazol-3-amine]",0.5 to 5 µM
16,COc1ccc(Cc2sc3nnc(SCc4c(F)cccc4Cl)n3c2-c2ccc(F)cc2)cc1OC [Example 83],0.5 to 5 µM
17,COC(=O)c1cccc(CSc2nnc3scc(-c4cccc(Br)c4)n23)c1 [Example 66],0.5 to 5 µM
18,"COc1ccc(Cc2sc3nnc(SCc4c(F)cccc4Cl)n3c2-c2cccc(Cl)c2)cc1OC [Example 17, 3-[(2-Chloro-6-fluoro-phenyl)methylsulfanyl]-5-(3-chlorophenyl)-6-[(3,4-dimethoxyphenyl)methyl]thiazolo[2,3-c][1,2,4]triazole]",0.5 to 5 µM
19,Fc1ccc(-c2csc3nnc(SCc4ccc5c(c4)OCO5)n23)cc1 [Example 24],5 to 50 µM
20,c1ccc(-c2csc3nnc(SCc4ccc5cnccc5c4)n23)cc1 [Example 43],5 to 50 µM
21,"OC(c1ccc(F)cc1)c1sc2nnc(SCc3ccc4c(c3)OCO4)n2c1-c1ccccc1 (centres unmarked) [Example 7, [3-(1,3-Benzodioxol-5-ylmethylsulfanyl)-5-phenyl-thiazolo[2,3-c][1,2,4]triazol-6-yl]-(4-fluorophenyl)methanol]",5 to 50 µM
22,Cc1ccc(-c2csc3nnc(SCc4c(F)cccc4Cl)n23)cc1Cl [Example 86],0.5 to 5 µM

row,SMILES,EC50
1,COc1cc(Cl)c(Cc2sc3nnc(SCc4ccc5c(c4)OCO5)n3c2-c2cccc(Cl)c2)cc1OC [Example 127],0.5 to 5 µM
2,Brc1cccc(-c2csc3nnc(SCc4ccc5c(c4)OCO5)n23)c1 [Example 69],< 0.5 µM
3,COc1ccc(CSc2nnc3sc(-c4c(F)cccc4Cl)c(-c4ccc(F)cc4)n23)cc1F [Example 94],0.5 to 5 µM
4,Fc1ccc(-c2c(-c3c(F)cccc3Cl)sc3nnc(Cc4ccc5c(c4)OCO5)n23)cc1 [Example 97],5 to 50 µM
5,"c1ccc(-c2csc3nnc(SCc4ccc5c(c4)OCO5)n23)cc1 [Example 6, 3-(1,3-Benzodioxol-5-ylmethylsulfanyl)-5-phenyl-thiazolo[2,3-c][1,2,4]triazole]",5 to 50 µM
6,"COc1ccc(Cc2sc3cnc(SCc4c(F)cccc4Cl)n3c2-c2cccc(Cl)c2)cc1OC [Example 18, 5-[(2-chloro-6-fluoro-phenyl)methylsulfanyl]-3-(3-chlorophenyl)-2-[(3,4-dimethoxyphenyl)methyl]imidazo[5,1-b]thiazole]",< 0.5 µM
7,Cc1ccc(-c2csc3nnc(SCc4c(F)cccc4Cl)n23)cc1 [Example 109],< 0.5 µM
8,"Cc1nnc2sc(SCc3c(F)cccc3Cl)c(-c3ccccc3)n12 [Example 8, 6-[(2-Chloro-6-fluoro-phenyl)methylsulfanyl]-3-methyl-5-phenyl-thiazolo[2,3-c][1,2,4]triazole]",5 to 50 µM
9,Fc1cccc(Cl)c1CSc1nnc2scc(-c3cccc(Cl)c3)n12 [Example 117],0.5 to 5 µM
10,COc1ccc(Cc2sc3nnc(SCc4c(F)cccc4Cl)n3c2-c2ccc(F)c(Cl)c2)cc1Cl [Example 100],0.5 to 5 µM
11,"Cc1ccc(N(C)C(=O)c2sc3nnc(C)n3c2-c2ccccc2)cc1Cl [Example 2, N-(3-chloro-4-methyl-phenyl)-N,3-dimethyl-5-phenyl-thiazolo[2,3-c][1,2,4]triazole-6-carboxamide]",0.5 to 5 µM
12,c1ccc2cc(-c3csc4nnc(SCc5ccc6c(c5)OCO6)n34)ccc2c1 [Example 131],5 to 50 µM
13,"C=C(c1ccc(OC)c(OC)c1)c1sc2nnc(SCc3c(F)cccc3Cl)n2c1-c1ccccc1 [Example 12, 3-[(2-chloro-6-fluoro-phenyl)methylsulfanyl]-6-[1-(3,4-dimethoxyphenyl)vinyl]-5-phenyl-thiazolo[2,3-c][1,2,4]triazole]",5 to 50 µM
14,CCc1sc2nnc(SCc3ccc4c(c3)OCO4)n2c1-c1ccccc1 [Example 48],5 to 50 µM
15,"COc1ccc(C(C)(C)c2sc3nnc(SCc4c(F)cccc4Cl)n3c2-c2ccccc2)cc1OC [Example 11, 3-[(2-chloro-6-fluoro-phenyl)methylsulfanyl]-6-[1-(3,4-dimethoxyphenyl)-1-methyl-ethyl]-5-phenyl-thiazolo[2,3-c][1,2,4]triazole]",0.5 to 5 µM
16,Fc1ccc(-c2csc3nnc(SCc4ccc5c(c4)OCO5)n23)cc1Br [Example 53],< 0.5 µM
17,COc1cc(Br)c(Cc2sc3nnc(SCc4c(F)cccc4Cl)n3c2-c2ccc(F)c(Cl)c2)c(Br)c1OC [Example 112],0.5 to 5 µM
18,c1cc(-c2csc3nnc(SCc4ccc5c(c4)OCO5)n23)cc(C2CC2)c1 [Example 80],0.5 to 5 µM
19,CC(c1ccccc1)c1sc2nnc(SCc3c(F)cccc3Cl)n2c1-c1ccc(F)cc1 (centres unmarked) [Example 98],5 to 50 µM
20,COc1ccc(Cc2sc3nnc(SCc4ccc(F)cc4F)n3c2-c2ccc(F)c(Cl)c2)cc1Cl [Example 106],0.5 to 5 µM
21,c1ccc(CCSc2nnc3scc(-c4ccccc4)n23)cc1 [Example 30],5 to 50 µM
22,Fc1cccc(Cl)c1CSc1nnc2scc(-c3ccccc3)n12 [Example 19],5 to 50 µM
